Values of other authors, collected in paper PMC13207833, “Coumarin–Amino Acid Hybrids Used as Possible Multifactorial Anti-Inflammatory Agents” (International Journal of Molecular Sciences, 2026).

Target: T1, soybean lipoxygenase (SLOX-1) (Glycine max, UniProt P08170)
T1 construct: purchased Merck and Sigma-Aldrich
T1 sequence (P08170 1-839): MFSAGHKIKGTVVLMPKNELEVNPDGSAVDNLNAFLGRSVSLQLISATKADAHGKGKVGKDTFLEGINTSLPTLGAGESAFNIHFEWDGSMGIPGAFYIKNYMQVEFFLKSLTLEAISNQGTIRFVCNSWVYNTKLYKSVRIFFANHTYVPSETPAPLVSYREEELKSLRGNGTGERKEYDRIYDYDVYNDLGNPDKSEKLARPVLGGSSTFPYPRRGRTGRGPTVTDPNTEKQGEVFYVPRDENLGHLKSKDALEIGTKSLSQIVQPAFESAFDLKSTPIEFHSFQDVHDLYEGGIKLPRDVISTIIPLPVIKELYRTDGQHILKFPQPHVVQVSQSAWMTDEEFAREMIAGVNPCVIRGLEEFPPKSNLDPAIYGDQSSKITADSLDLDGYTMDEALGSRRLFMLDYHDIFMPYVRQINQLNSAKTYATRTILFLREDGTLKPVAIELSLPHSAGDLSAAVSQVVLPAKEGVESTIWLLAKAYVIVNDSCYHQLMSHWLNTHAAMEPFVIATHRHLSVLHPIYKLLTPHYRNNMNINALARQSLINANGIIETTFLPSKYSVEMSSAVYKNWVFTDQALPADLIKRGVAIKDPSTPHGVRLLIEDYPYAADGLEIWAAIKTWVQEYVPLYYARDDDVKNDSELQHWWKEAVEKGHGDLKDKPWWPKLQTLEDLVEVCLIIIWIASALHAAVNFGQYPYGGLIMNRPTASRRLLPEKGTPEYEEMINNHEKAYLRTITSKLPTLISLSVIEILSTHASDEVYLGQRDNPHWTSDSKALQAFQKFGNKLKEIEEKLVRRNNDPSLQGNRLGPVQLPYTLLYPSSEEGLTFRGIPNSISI
Parameters: method as in PMID 29329232
Details: value from earlier paper of the group

| IC50 | Compound |
| --- | --- |
| 100 µM | O=C(O)COc1ccc2oc(=O)ccc2c1 [Compound 2, 2-((2-oxo-2H-chromen-6-yl)oxy)acetic acid] |
| 100 µM | O=C(O)COc1ccc2ccc(=O)oc2c1 [Compound 3, 2-((2-oxo-2H-chromen-7-yl)oxy)acetic acid] |
